Assay results: ChEMBL document CHEMBL1136342, “X-ray structures of two xanthine inhibitors bound to PEPCK and N-3 modifications of substituted 1,8-dibenzylxanthines” (Bioorg Med Chem Lett, 2003)

Experiment: Inhibition of human phosphoenolpyruvate carboxykinase (PEPCK).

Structure (SMILES)	IC50 [nM]
CC(=O)Nc1ccc(Cc2nc3c(=O)n(Cc4ccccc4F)c(=O)n(CCCC(N)=O)c3[nH]2)cc1	6600
COC(=O)[C@H]1CC1Cn1c(=O)n(Cc2ccccc2F)c(=O)c2[nH]c(Cc3ccc(NC(C)=O)cc3)nc21 (stereo partly specified)	3000
CC(=O)Nc1ccc(Cc2nc3c(=O)n(Cc4ccccc4F)c(=O)n(CCCCO)c3[nH]2)cc1	2850
CC(=O)Nc1ccc(Cc2nc3c(=O)n(Cc4ccccc4F)c(=O)n(CC4CCCC4)c3[nH]2)cc1	3050
CC(=O)Nc1ccc(Cc2nc3c(=O)n(Cc4ccccc4F)c(=O)n(CC4CCCCO4)c3[nH]2)cc1 (stereo unspecified)	4500
CC(=O)Nc1ccc(Cc2nc3c(=O)n(Cc4ccccc4F)c(=O)n(Cc4ccoc4)c3[nH]2)cc1	4500
CC(=O)Nc1ccc(Cc2nc3c(=O)n(Cc4ccccc4F)c(=O)n(CC4C[C@@H]4CO)c3[nH]2)cc1 (stereo partly specified)	2270
CCCCCCn1c(=O)n(Cc2ccccc2F)c(=O)c2[nH]c(Cc3ccc(NC(C)=O)cc3)nc21	8900
CC(=O)Nc1ccc(Cc2nc3c(=O)n(Cc4ccccc4F)c(=O)n(CC4CCCO4)c3[nH]2)cc1 (stereo unspecified)	5700
CC(=O)Nc1ccc(Cc2nc3c(=O)n(Cc4ccccc4F)c(=O)n(CCCO)c3[nH]2)cc1	5450

The next compounds have a lower IC50 than those just listed; values first:

IC50 [nM]	Structure (SMILES)
1820	CC(=O)Nc1ccc(Cc2nc3c([nH]2)c(=O)n(Cc2ccccc2F)c(=O)n3CC2C[C@@H]2C)cc1 (stereo partly specified)
690	CC(=O)Nc1ccc(Cc2nc3c([nH]2)c(=O)n(Cc2ccccc2F)c(=O)n3CC2CC2)cc1
1180	CC(=O)Nc1ccc(Cc2nc3c(=O)n(Cc4ccccc4F)c(=O)n(CC4CCC4)c3[nH]2)cc1
2110	CCCCn1c(=O)n(Cc2ccccc2F)c(=O)c2[nH]c(Cc3ccc(NC(C)=O)cc3)nc21
1490	CCCn1c(=O)n(Cc2ccccc2F)c(=O)c2[nH]c(Cc3ccc(NC(C)=O)cc3)nc21
2020	CC(=O)Nc1ccc(Cc2nc3c([nH]2)c(=O)n(Cc2ccccc2F)c(=O)n3CC(C)C)cc1
2000	CC(=O)Nc1ccc(Cc2nc3c(=O)n(Cc4ccccc4F)c(=O)n(CCC(=O)O)c3[nH]2)cc1
2000	CC(=O)Nc1ccc(Cc2nc3c(=O)n(Cc4ccccc4F)c(=O)n(CC4CC4(CO)CO)c3[nH]2)cc1 (stereo unspecified)
560	CC(=O)Nc1ccc(Cc2nc3c(=O)n(Cc4ccccc4F)c(=O)n(CC4C[C@@H]4C(=O)O)c3[nH]2)cc1 (stereo partly specified)
1950	CC(=O)Nc1ccc(Cc2nc3c(=O)n(Cc4ccccc4F)c(=O)n(CCCC(=O)O)c3[nH]2)cc1

Experiment: Binding affinity against phosphoenolpyruvate carboxykinase (PEPCK) using isothermal titration calorimetry(ITC)

Ki [nM]	Structure (SMILES)
200	CC(=O)Nc1ccc(Cc2nc3c(=O)n(Cc4ccccc4F)c(=O)n(CCCC(=O)O)c3[nH]2)cc1
